From article PMC9413440, “An Iterative Approach Guides Discovery of the FabI Inhibitor Fabimycin, a Late-Stage Antibiotic Candidate with In Vivo Efficacy against Drug-Resistant Gram-Negative Infections” (ACS Central Science, 2022)
Converted amounts (≈) assume the structure as drawn.

Legend:
[1] = tested on: E. coli MG1655; assay: Whole-cell accumulation assay (LC-MS/MS); format: cell-based, Escherichia coli
Protocol: II. Materials and Methods for Biological Experiments
S. aureus ATCC 29213 and E. coli MG1655 were obtained from the American Type Culture Collection (ATCC). E. coli BW25113 and E. coli JW5503 were obtained from the Keio Collection. AR-bank strains were obtained from the Centers for Disease Control and Prevention and FDA Antibiotic Resistance Isolate Bank. […]
The accumulation assay4 was performed in triplicate with each batch containing tetracycline as a positive control. E. coli MG1655 was used in these experiments. For each replicate, 2.5 mL of an overnight culture of E. coli was diluted into 250 mL of fresh Luria Bertani (LB) broth (Lennox) and grown at 37 °C with shaking to an optical density (OD600) of 0.55. The bacteria were pelleted at 3220 r.c.f. for 10 min at 4 °C and the supernatant was discarded. The pellets were resuspended in 40 mL of phosphate buffered saline (PBS) and pelleted as before, and the supernatant discarded. […] The number of colony-forming units (CFUs) was determined by a calibration curve. […] Supernatants were analyzed by LC-MS/MS.
Samples were analyzed with the […] LC-MS/MS system (AB Sciex) with a 1200 series HPLC system (Agilent Technologies) including a degasser, an autosampler, and a binary pump. […]
The source temperature was 450 °C. […] Multiple reaction monitoring was used for quantification. […] All compounds evaluated in biological assays were ≥95% pure.

[2] = tested on: S. aureus ATCC 29213; format: cell-based, Staphylococcus aureus
Protocol: Selection of resistant mutants
Resistant mutants were generated using the large inoculum method. Briefly, S. aureus 29213, E. coli MG1655, and A. baumannii 19606 (~1 x 1010 CFUs) was plated on 100-mm plates (E. coli and A. baumannii) or 150-mm plates (S. aureus) of MH agar containing either 128, 64, or 32 µg/mL fabimycin (for gram-negatives) or 0.125, 0.062, and 0.031 µg/mL fabimycin (for S. aureus). Plates were incubated at 37 °C for 48 h and counted for the presence of colony forming units.
Glycerol stocks of selected colonies were made, and resistant colonies confirmed by growing on agar plates containing the same concentration of fabimycin that they were generated at. […]
Forward 5’-GGG-GCC-AGC-GTT-TCT-TTT-TC-3‘ Parker, 20203
Reverse 5’-AAA-CAT-GGA-GAC-GGT-GCT-GG
Forward 5’-GTG-AGA-TCG-GCA-TGA-CAC-AA-3’ Lin, 20179
Reverse 5’-CTG-AAG-TCC-GCT-ACC-GTT-AT-3’
Compound stability in mammalian plasma […]
Each drug is tested […]
in duplicate. Compounds were diluted from 10 mM DMSO stocks to 1 µM in a 100 mM pH 7.4 phosphate buffer and incubated at 37 °C with 0.5 mg/mL of human, rat, or mouse plasma (BioreclamationIVT, Baltimore, MD). […]
Compound plasma protein binding […]
The standard assay involves equilibrium dialysis, in which compound is allowed to equilibrate between a protein-containing compartment from a protein-free compartment. Each

[3] = tested on: E. coli MG1655; assay: Serial passaging; format: cell-based, Escherichia coli; conditions: E. coli MG1655, subinhibitory concentration, 21 days
Protocol: Serial passaging procedure was done as reported in literature.5 Briefly, E. coli MG1655 cells were grown in 0.6 mL of MH media containing fabimycin and ciprofloxacin (control) at different concentrations. Cells were added to the respective compounds at 0.25X, 0.5X, 1X, 2X, and 4X to start. At 22-24 hours the cultures were checked for growth. […]
compound at varying concentrations based off of the MIC. This serial passaging was repeated for 21 days. […]
All cells were cultured […]
at 37 °C under a 5% CO2 environment. Cell lines were authenticated by a commercial vendor and inspected visually in house. Cell lines were not tested for Mycoplasma contamination. The media was prepared by the University of Illinois School of Chemical Sciences Cell Media Facility.
H. sapiens HFF-1, A549, and HepG2 cells were seeded (3,000-6,000 cells/well) in a 96-well plate (Greiner Bio-One;

[4] = tested on: A. baumannii 19606; assay: MIC, broth microdilution (CLSI); format: cell-based; conditions: Acinetobacter baumannii
How it was run: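 Broth microdilution per CLSI in cation-adjusted Mueller Hinton broth, run in biological triplicate unless noted otherwise. MIC is taken as the lowest concentration inhibiting growth.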

Row | Structure (SMILES) | whole-cell accumulation [1] | frequency of resistance [2] | mutant prevention concentration (MPC) [2] | increase in the MIC after serial passaging [3] | MIC [4]
1 | Cc1c(CN(C)C(=O)/C=C/c2cnc3c(c2)CCCC(=O)N3)oc2ccccc12 [compound 10] | reduced whole-cell accumulation | – | – | – | –
2 | Cc1c(CN(C)C(=O)/C=C/c2cnc3c(c2)CC[C@H](N)C(=O)N3)oc2ccccc12 [fabimycin] | – | 1.8 × 10^–10 to 5.2 × 10^–10 | 0.125 µg/mL | 8 fold | 2 mg/L (≈ 4.94 µM)
